Here are results for 6 compounds from ChEMBL document CHEMBL1129807, “Design and synthesis of 3,5-dialkylamino substituted 8H,10H-3(R),5(R),15b(S)-2,3,6,7-tetrahydro-1,5,3-dioxazepino[3,2-c]indolo[3,2-g]pteridine-7-ones” (Bioorg Med Chem Lett, 1997).

The assay deals with L1210. The assay can be described thus: The compound was tested in vitro for growth inhibitory activity against murine leukemia L1210 cells. Particulars: Mus musculus. The assay is classed as functional, cell-based.

`CCN(CC)C[C@H]1CO[C@H]2c3nc4c5ccccc5n(C)c4nc3NC(=O)N2[C@@H](CN(CC)CC)O1` gave an IC50 of 17 µM. That is a double-digit micromolar value. In the case of `CN1CCC(N(C)C[C@H]2CO[C@H]3c4nc5c6ccccc6n(C)c5nc4N(C)C(=O)N3[C@@H](CN(C)C3CCN(C)CC3)O2)CC1` it was 4 µM. In the case of `CCN(CC)C[C@H]1CO[C@H]2c3nc4c5ccccc5n(C)c4nc3N(C)C(=O)N2[C@@H](CN(CC)CC)O1` it was 6 µM. Consider `CN1CCN(C[C@H]2CO[C@H]3c4nc5c6ccccc6n(C)c5nc4N(C)C(=O)N3[C@@H](CN3CCN(C)CC3)O2)CC1`, for which inhibition was half-maximal at 20 µM (IC50). Against the preceding compound, the IC50 is about 3.3-fold higher. The figure for `CN(C)CCCN(C)C[C@H]1CO[C@H]2c3nc4c5ccccc5n(C)c4nc3N(C)C(=O)N2[C@@H](CN(C)CCCN(C)C)O1` is 24 µM.

In turn, `Cc1c2ccncc2c(C)c2c1[nH]c1ccccc12` [ELLIPTECINE] gave an IC50 of 0.5 µM. This IC50 is about 48-fold lower than that of the compound before.

As usually defined, the IC50 is the midpoint of a concentration-inhibition curve. Higher therefore signals weaker potency.
